Experimental data published in ChEMBL document CHEMBL3881525, “Analogs of dehydrophenylahistins and their therapeutic use” (2007).
Calls of active or inactive are those of the source. The rule behind the calls is not given here.

What was measured:
[1] = target: T1, Tubulin (Homo sapiens) (UniProt P68371+Q9H4B7+P0DPH7+P68366+Q13509+Q71U36+P04350+Q3ZCM7+P07437+P68363+Q9BQE3+Q6PEY2+Q13885+Q9BVA1+Q9BUF5); assay: Induction of microtubule instability in human MCF7 cells assessed as time spent for growth at IC50 for mitotic block measured after 20 hrs by immunofluorescence analysis; format: cell-based
[2] = target: T1, Tubulin (Homo sapiens); assay: Induction of microtubule instability in human MCF7 cells assessed as rescue frequency at IC50 for mitotic block measured after 20 hrs by immunofluorescence analysis; format: cell-based
[3] = tested on: Rattus norvegicus; assay: Effect on blood flow in rat heart at 15 mg/kg, ip measured after 1 hr by [125I]iodoantipyrine based method relative to vehicle control; format: ADME, organism-based; conditions: in vivo
[4] = Antiproliferative activity against human mitoxantrone-sensitive HL60 cells; format: functional, cell-based; conditions: HL-60
[5] = Antifungal activity against Trichophyton rubrum isolate 2 measured after 48 hrs by broth dilution method; format: functional
[6] = Antitumor activity against human MCF7 cells xenografted in nude mouse assessed as tumor growth inhibition at 7.5 mg/kg, ip qd administered every third day for 5 days in presence of CPT-11 relative to control; format: functional; conditions: 120 h, read-out: TGI
[7] = tested on: MCF7; assay: Antimitotic activity in human MCF7 cells assessed as microtubule polymer at twice mitotic block IC50 measured after 20 hrs by immunofluorescence analysis relative to control; format: functional, cell-based
[8] = target: T1, Tubulin (Homo sapiens); assay: Induction of microtubule instability in human MCF7 cells assessed as rescue frequency at IC25 for mitotic block measured after 20 hrs by immunofluorescence analysis; format: cell-based
[9] = tested on: Jurkat; assay: Induction of apoptosis in human Jurkat cells assessed as PARP cleavage at 100 nM measured after 10 hrs by Western blotting; format: functional, cell-based
[10] = tested on: Rattus norvegicus; assay: Reduction in blood flow in rat gut at 15 mg/kg, ip measured after 24 hrs by [125I]iodoantipyrine based method relative to vehicle control; format: ADME, organism-based; conditions: in vivo
[11] = target: T1, Tubulin (Homo sapiens); assay: Induction of microtubule instability in human MCF7 cells assessed as time spent for shortening at IC50 for mitotic block measured after 20 hrs by immunofluorescence analysis; format: cell-based
[12] = Antitumor activity against human HT-29 cells xenografted in nude mouse assessed as tumor growth inhibition at 10 mg/kg, ip administered every third day for 5 days in presence of CPT-11 relative to control; format: functional; conditions: HT-29, ip, 120 h, read-out: TGI
[13] = tested on: Rattus norvegicus; assay: Reduction in blood flow in rat spleen at 15 mg/kg, ip measured after 24 hrs by [125I]iodoantipyrine based method relative to vehicle control; format: ADME, organism-based; conditions: in vivo
[14] = target: T1, Tubulin (Homo sapiens); assay: Induction of microtubule instability in human MCF7 cells assessed as time spent for attenuation at IC25 for mitotic block measured after 20 hrs by immunofluorescence analysis; format: cell-based
[15] = tested on: Rattus norvegicus; assay: Reduction in blood flow in rat skin at 15 mg/kg, ip measured after 24 hrs by [125I]iodoantipyrine based method relative to vehicle control; format: ADME, organism-based; conditions: in vivo
[16] = Antifungal activity against Trichophyton mentagrophytes isolate 2 measured after 48 hrs by broth dilution method; format: functional
[17] = Antifungal activity against Trichophyton rubrum isolate 1 measured after 48 hrs by broth dilution method; format: functional
[18] = Drug metabolism assessed as human hepatic cytochrome P450-mediated hydroxylated metabolite P3 and P5 formation; format: ADME
[19] = tested on: Mus musculus; assay: Antivascular activity against mouse N202 tumor spheroids expressing H2B-GFP allografted in mouse assessed as inhibition of tumor-induced central vasculature at 10 mg/kg, iv administered on day 12 as infusion for 5 mins measured on day 15 by fluorescence video microscopy; format: functional, organism-based
[20] = Antiproliferative activity against taxol-resistant human MES-SA/Dx5 cells expressing MDR1 mRNA and P-gp; format: functional, cell-based
[21] = Toxicity in mouse allografted with mouse N202 tumor spheroids expressing H2B-GFP assessed as effect on tumor surrounding vasculature in the dorsal skin fold at 10 mg/kg, iv administered on day 13 as infusion for 5 mins measured on day 15; format: organism-based; conditions: in vivo
[22] = tested on: HUVEC; assay: Induction of monolayer permeability in HUVEC assessed as colchicin transport at 2 uM measured up to 1 hr; format: functional, cell-based; conditions: Homo sapiens
[23] = target: Tyrosine-protein kinase Lyn (Mus musculus) (UniProt P25911); conditions: 10 uM
Description: Inhibition of mouse Lyn at 10 uM in presence of ATP

[24] = tested on: Mus musculus; assay: Antivascular activity against mouse N202 tumor spheroids expressing H2B-GFP allografted in mouse assessed as inhibition of tumor-induced central vasculature at 10 mg/kg, iv administered on day 13 as infusion for 5 mins measured on day 15 by fluorescence video microscopy; format: functional, organism-based
[25] = tested on: HUVEC; assay: Induction of apoptosis in HUVEC assessed as disruption of nuclei; format: functional, cell-based; conditions: Homo sapiens
[26] = tested on: Rattus norvegicus; assay: Effect on blood flow in rat skin at 15 mg/kg, ip measured after 1 hr by [125I]iodoantipyrine based method relative to vehicle control; format: ADME, organism-based; conditions: in vivo
[27] = target: Tubulin alpha (Homo sapiens) (UniProt P0DPH7+P68366+Q71U36+P68363+Q9BQE3+Q6PEY2+A6NHL2+Q9NY65); assay: Induction of alpha-tubulin depolymerization in HUVEC at 200 nM measured after 30 mins by DAPI staining based indirect immunofluorescence analysis; format: cell-based
[28] = Antiproliferative activity against taxol-sensitive human MES-SA cells […]; format: functional, cell-based
[29] = Antiproliferative activity against human mitoxantrone-resistant HL60/MX2 cells; format: functional, cell-based; conditions: HL-60
[30] = target: T1, Tubulin (Homo sapiens); assay: Induction of microtubule depolymerization in human CCD-27Sk cells assessed as cell membrane blebbing at 2 uM measured after 30 mins; format: cell-based
[31] = Antitumor activity against human HT-29 cells xenografted in nude mouse assessed as tumor growth inhibition at 7.5 mg/kg, ip administered every third day for 5 days relative to control; format: functional; conditions: HT-29, ip, 120 h, read-out: TGI
[32] = Toxicity in mouse allografted with mouse N202 tumor spheroids expressing H2B-GFP at 10 mg/kg, iv administered on day 13 as infusion for 5 mins; format: organism-based; conditions: in vivo
[33] = target: T1, Tubulin (Homo sapiens); assay: Induction of microtubule depolymerization in human CCD-27Sk cells at 2 uM measured after 30 mins; format: cell-based
[34] = Antifungal activity against Epidermophyton floccosum isolate 2 measured after 48 hrs by broth dilution method; format: functional
[35] = tested on: MCF7; assay: Potentiation of taxotere-induced antitumor activity against human MCF7 cells xenografted in nude mouse assessed as tumor growth inhibition at 7.5 mg/kg, ip qd for 4 days measured on day 7; format: functional, organism-based
[36] = target: T1, Tubulin (Homo sapiens); assay: Induction of microtubule instability in human MCF7 cells assessed as mean shortening rate at IC50 for mitotic block measured after 20 hrs by immunofluorescence analysis; format: cell-based
[37] = tested on: Rattus norvegicus; assay: Effect on blood flow in rat spleen at 15 mg/kg, ip measured after 1 hr by [125I]iodoantipyrine based method relative to vehicle control; format: ADME, organism-based; conditions: in vivo
[38] = Cytotoxicity against human HT-29 cells assessed as reduction in cell viability measured after 48 hrs by resazurin dye-based fluorometric analysis relative to control; format: functional
[39] = Cytotoxicity against human MDA-MB-231 cells assessed as reduction in cell viability measured after 48 hrs by resazurin dye-based fluorometric analysis; format: functional; conditions: MDA-MB-231, 48 h
[40] = tested on: HeLa; assay: Effect on cell cycle progression in human HeLa cells assessed as increase in 4N cells at 100 nM; format: functional, cell-based

Chain of Tyrosine-protein kinase Lyn (Mus musculus) (P25911 whole entry, the tested form may be a part): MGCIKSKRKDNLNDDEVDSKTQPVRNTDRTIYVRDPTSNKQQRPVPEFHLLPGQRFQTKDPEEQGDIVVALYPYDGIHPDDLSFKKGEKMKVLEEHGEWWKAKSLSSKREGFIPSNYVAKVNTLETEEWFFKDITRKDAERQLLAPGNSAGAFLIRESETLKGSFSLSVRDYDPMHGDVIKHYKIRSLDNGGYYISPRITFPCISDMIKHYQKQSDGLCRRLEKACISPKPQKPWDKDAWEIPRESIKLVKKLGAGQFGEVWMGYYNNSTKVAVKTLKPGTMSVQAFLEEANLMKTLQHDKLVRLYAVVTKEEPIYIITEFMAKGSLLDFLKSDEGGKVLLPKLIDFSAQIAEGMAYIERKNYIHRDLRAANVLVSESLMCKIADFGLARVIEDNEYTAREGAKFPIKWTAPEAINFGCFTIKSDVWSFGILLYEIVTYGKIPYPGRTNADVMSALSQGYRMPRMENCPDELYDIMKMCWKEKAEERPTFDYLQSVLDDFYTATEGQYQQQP

CC(C)(C)c1[nH]cnc1/C=c1\[nH]c(=O)/c(=C/c2ccccc2)[nH]c1=O [PLINABULIN]
Activity [1]: 33%
TIME [1]: 0.005 h
Activity [2]: 2.6 min⁻¹
Activity [3]: Non-Toxic
EC50 [4]: 6.4 nM
MIC [5]: < 0.03 µg/mL
inhibition in vivo at 7.5 mg/kg [6]: 26 to 81%
Activity [7]: Active
Activity [8]: 2.79 min⁻¹
Activity [9]: Active
Activity [10]: Toxic
Activity [11]: 20.9%
TIME [11]: 0.00367 h
inhibition in vivo at 10 mg/kg [12]: 65.8 to 83.3%
Activity [13]: Toxic
Activity [14]: 49.8%
TIME [14]: 0.0122 h
Activity [15]: Toxic
MIC [16]: > 16 µg/mL
MIC [17]: > 16 µg/mL
Drug metabolism [18]: Metabolite_Detected
inhibition [19]: Active
IC50 [20]: 10.5 to 23 nM
Activity [21]: Non-Toxic
Activity [22]: Active
inhibition [23]: > 50%
inhibition [24]: Active
Activity [25]: Active
Activity [26]: Non-Toxic
Activity [27]: Active
EC50 [28]: 8.5 to 34 nM
EC50 [29]: 8.17 nM
Activity [30]: Active
inhibition in vivo at 7.5 mg/kg [31]: 9%
Activity [32]: Non-Toxic
Activity [33]: Active
MIC [34]: > 16 µg/mL
TGI [35]: Active
Activity [36]: 34.1 um/min
Activity [37]: Non-Toxic
inhibition (INH) [38]: 82.5 - 88%
EC50 [39]: 13.8 nM
Activity [40]: Active
